The numbers were not newly measured in US8247562B2, “Benzamide derivatives useful as histone deacetylase inhibitors” (Astrazeneca AB, priority 2002, dated 2012), which cites them from elsewhere.

Data set [1] deals with rat fibroblasts. The note with it: Yoshida et al, Exper. Cell Res., 177, 122-131 (1988).
Data set [2] deals with tumours in mice. To be noted: Finnin et al., Nature, 401, 188-193 (1999).

Structures are written as SMILES.

On to `CC(/C=C/C(=O)NO)=C\[C@@H](C)C(=O)c1ccc(N(C)C)cc1` [Trichostatin A], for which the cell cycle arrest result in data set [1] was “arrest of rat fibroblasts at the G1 and G2 phases of the cell cycle”. In addition, in data set [2], the formation of tumours result was “prevent the formation of tumours in mice”.
